Results as given in publication PMC7016953 (Cells, 2020).

Assays:
TRPC3 = target: T1, TRPC3 (Homo sapiens, UniProt Q13507); assay: Outside-out patch recordings from HEK TRPC3-YFP cells; type: cell-based; conditions: 50 µM, outside-out patches, −100 mV, n = 6
T1 construct: expressed in transfected cells
T1 sequence (Q13507 1-848 isoform Q13507-3): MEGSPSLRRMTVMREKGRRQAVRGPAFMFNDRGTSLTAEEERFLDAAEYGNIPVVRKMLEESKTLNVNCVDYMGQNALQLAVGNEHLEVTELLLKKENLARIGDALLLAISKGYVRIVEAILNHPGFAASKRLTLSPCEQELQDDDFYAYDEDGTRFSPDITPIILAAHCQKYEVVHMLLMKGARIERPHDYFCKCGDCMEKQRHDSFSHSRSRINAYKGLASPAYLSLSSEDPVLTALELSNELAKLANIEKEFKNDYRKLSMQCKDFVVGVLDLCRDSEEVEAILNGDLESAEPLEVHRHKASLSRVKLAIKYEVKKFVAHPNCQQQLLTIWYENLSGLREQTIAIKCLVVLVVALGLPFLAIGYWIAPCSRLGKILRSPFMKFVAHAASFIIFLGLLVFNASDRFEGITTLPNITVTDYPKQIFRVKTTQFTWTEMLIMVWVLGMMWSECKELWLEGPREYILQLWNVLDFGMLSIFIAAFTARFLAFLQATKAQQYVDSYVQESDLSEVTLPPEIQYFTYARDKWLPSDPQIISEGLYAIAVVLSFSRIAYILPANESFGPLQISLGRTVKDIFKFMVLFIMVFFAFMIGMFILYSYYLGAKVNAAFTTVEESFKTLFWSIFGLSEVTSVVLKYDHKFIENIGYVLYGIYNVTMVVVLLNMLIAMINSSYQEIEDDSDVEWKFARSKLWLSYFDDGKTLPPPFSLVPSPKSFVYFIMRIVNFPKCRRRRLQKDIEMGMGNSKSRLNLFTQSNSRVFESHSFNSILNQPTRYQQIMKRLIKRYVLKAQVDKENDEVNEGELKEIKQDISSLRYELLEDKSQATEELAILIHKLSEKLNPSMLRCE
Protocol: The recordings of TRPC3, TRPC6, or TRPC7 membrane currents in HEK293 or PC12 cells were realized by using a Multiclamp 700B amplifier with a Digidata 1440A digitizer controlled by the PClamp 10 software (all Molecular Devices, Sunnyvale, CA, U.S.A.). Recordings were obtained at room temperature either in the whole-cell or in an outside-out configuration as indicated. Cells were seeded as described above, but at lower density, mounted in a chamber (Warner Instruments, Hamden, CT; U.S.A.), placed onto the stage of an inverted microscope, and perfused with required solution. The standard extracellular solution contained 140 mM NaCl, 5 mM CsCl, 2 mM MgCl2, 1 mM CaCl2, 10 mM HEPES, and 0.035% BSA adjusted to pH 7.4 with NaOH. The composition of standard intracellular solution was 140 mM CsCl, 1 mM MgCl2, 5 mM EGTA, and 10 mM HEPES adjusted to pH 7.25 with CsOH; the osmolarity was 295 mOsm l^−1. In outside-out measurements, the pipette solution contained 5 mM EGTA and 1.1 mM CaCl2 to achieve a calculated free Ca^2+ concentration of 100 nM. […]
Outside-out patches were obtained from HEKTRPC3-YFP cells, and ionic currents were continuously recorded at a patch potential of –100 mV. […] (B) The open probability (Po) for the unknown number N of channels in the patch of the experiment shown in (A) was calculated over 2 s bins and plotted at the same time scale.

TRPC7 = system: T2, TRPC7; assay: Whole-cell patch-clamp recordings in HEK TRPC7-YFP cells; type: cell-based, human; conditions: 100 µM artemisinin
T2 construct: expressed in transfected cells
Protocol: The recordings of TRPC3, TRPC6, or TRPC7 membrane currents in HEK293 or PC12 cells were realized by using a Multiclamp 700B amplifier with a Digidata 1440A digitizer controlled by the PClamp 10 software (all Molecular Devices, Sunnyvale, CA, U.S.A.). Recordings were obtained at room temperature either in the whole-cell or in an outside-out configuration as indicated. Cells were seeded as described above, but at lower density, mounted in a chamber (Warner Instruments, Hamden, CT; U.S.A.), placed onto the stage of an inverted microscope, and perfused with required solution. The standard extracellular solution contained 140 mM NaCl, 5 mM CsCl, 2 mM MgCl2, 1 mM CaCl2, 10 mM HEPES, and 0.035% BSA adjusted to pH 7.4 with NaOH. The composition of standard intracellular solution was 140 mM CsCl, 1 mM MgCl2, 5 mM EGTA, and 10 mM HEPES adjusted to pH 7.25 with CsOH; the osmolarity was 295 mOsm l^−1. In outside-out measurements, the pipette solution contained 5 mM EGTA and 1.1 mM CaCl2 to achieve a calculated free Ca^2+ concentration of 100 nM.
Patch pipettes were pulled from borosilicate glass capillaries BG150F-8P (Science Products, Hofheim, Germany) with a PIP6 pipette puller (HEKA Elektronik, Lambrecht, Germany). […] In all whole-cell measurements, the series resistance was lower than 13 MΩ, and compensated by 70%. […]

C[C@@H]1CC[C@H]2[C@@H](C)C(=O)O[C@@H]3O[C@@]4(C)CC[C@@H]1[C@]32OO4 [artemisinin]
increase in the open probability (TRPC3): about 5.5 fold | ionic currents in TRPC7-expressing HEK cells (TRPC7): only weakly enhanced
